Experimental data taken from patent US6306432A, “High and low load formulations of IGF-I in multivesicular liposomes” (Chiron Corporation, priority 1997, dated 2001).
Where a SMILES comes first, the peptide text is derived from it.

Assays:
[1] = In vivo pharmacokinetics, serum IGF-I after subcutaneous injection in rats, low load versus free IGF-I; set-up: species or system rat; details: 20 mg/kg s.c.
Procedure: In-vivo studies. The pharmacokinetic behavior of a low load MVL formulation containing IGF-I was compared to that of unencapsulated IGF-I after subcutaneous injections (lower back) in rats. 20 mg/kg doses of either free IGF-I or a MVL formulation or IGF-I prepared from a stock solution of 5 mg/ml IGF-I was injected into each rat, with 3 rats per group. Sera were collected at various times up to 8 days post injection, and assayed for IGF-I using an IGF-I ELISA kits (DSL-10-5600) (Diagnostic Systems Laboratories (DSL), Webster, Tex.) according to the manufacturer's instructions. The pharmacokinetic parameters were calculated using the WinNonlin program (Scientific Consulting Inc.) and a non-compartmental model.

[2] = Solubility of IGF-I in aqueous solution versus pH; format: physicochemical
Procedure: Applicants have also discovered a second parameter that must be taken into consideration in determining the composition of the first aqueous component during manufacture of the IGF-I formulations of this invention. The concentration of IGF-I in solution in the first aqueous component during manufacture is directly proportional to the amount of IGF-I that can be loaded in any give formulation. […] Further studies have shown that up to about 300 mg/mL of IGF-I can be solubilized at a pH below 5. Thus, to obtain and maintain sufficient IGF-I in solution in the first aqueous solution, a buffer or acid is also added to it during manufacture to assure a high enough concentration of dissolved IGF-I in the first aqueous component to obtain a final MVL product containing the desired loading of the drug. For the low load formulations, the pH of the first aqueous component is generally adjusted to a value within the range of 1 to about 5, while for high load formulations the pH range is between 2 and 4.8.

[3] = system: MG-63 cells; assay: Mitogenic bioassay, MG-63 cells, MTT stain; format: cell-based, human; details: standard control in mitogenic assay
[4] = Osmolarity of sucrose and glycylglycine solutions and of the first aqueous component; format: physicochemical
Description: Drug loading in MVLs is modulated by controlling the osmolarity of the first aqueous component used during manufacture of the MVLs. Osmolarity is the sum of the molar concentrations of solutes present in an aqueous solution. If the solute is present in a dissociated, ionized or aggregated form, osmolarity is defined as the sum of the molar concentrations of the dissociated, ionized or aggregated forms. The solutes that contribute to the osmolarity of an aqueous solution include the IGF-I, and osmotic excipients that are to be encapsulated during manufacture of MVLs. The contribution to the osmolarity of a solution made by any solute in the solution is approximately equivalent to the weight concentration of the solute in the solution (e.g., mg/mL) divided by its molecular weight. Thus, as a general principle, for a given weight concentration, the larger the molecular weight of a solute, the smaller the osmolarity of the solute, and the smaller the contribution of that solute to the overall osmolarity of the solution. It is also possible to reduce the osmolarity of the first aqueous component by reducing the concentration of the active agent. This method will lead to a lower loading of IGF-I if the concentration of other solutes in the first aqueous component remain constant.

Osmolarity ([4]; 0.5 w/v %)	Osmolarity ([4]; 1.0 w/v %)	Osmolarity ([4]; 1.5 w/v %)	Osmolarity ([4]; 2.0 w/v %)	Osmolarity ([4]; 2.5 w/v %)	Osmolarity ([4]; 3.0 w/v %)	Osmolarity ([4]; 4.0 w/v %)	Osmolarity ([4]; 5.0 w/v %)	Osmolarity ([4]; 6.0 w/v %)	Osmolarity ([4]; 7.0 w/v %)	Osmolarity ([4]; 8.0 w/v %)	Compound	Time after which free IGF-I is cleared [1]	Solubility of IGF-I in aqueous solution ([2]; at a pH of about 5)	IGF-I solubilized ([2]; pH below 5)	Bioactivity of standard rhIGF-I ([3]; listed as recombinant human IGF-I)	Bioactivity of standard rhIGF-I ([3]; listed as rhIGF-I)
											Insulin-like Growth Factor I [IGF-I]	about 1 day	drops precipitously at a pH of about 5	up to 300 mg/mL	1.3×10^3 international units (IU)/mL	~ 1.3×10^3 international units (IU)/mL
15 mOsm	30 mOsm	45 mOsm	60 mOsm	76 mOsm	91 mOsm	123 mOsm	156 mOsm	190 mOsm	225 mOsm	261 mOsm	OC[C@H]1O[C@@](CO)(O[C@H]2O[C@H](CO)[C@@H](O)[C@H](O)[C@H]2O)[C@@H](O)[C@@H]1O [sucrose]					
38 mOsm	76 mOsm	114 mOsm	152 mOsm	189 mOsm	227 mOsm	303 mOsm	379 mOsm	455 mOsm	530 mOsm	606 mOsm	NCC(=O)NCC(=O)O [Glycylglycine, glycylglycine] (H-Gly-Gly-OH)					
